Measurements as given in ChEMBL document CHEMBL4507319 (2021).

Assays:
[1] = molecular target: Tyrosine-protein kinase CSK (Homo sapiens) (UniProt P41240); experiment: CSK(h) Eurofins kinase panel; details: Compound concentration 1.0 uM
[2] = molecular target: Serine/threonine-protein kinase Nek6 (Homo sapiens) (UniProt Q9HC98); experiment: NEK6(h) Eurofins kinase panel; details: Compound concentration 1.0 uM
[3] = tested on: NCI-H460; experiment: NCI- H460 cell line Proliferation assay; format: functional, Homo sapiens; details: time 3 day
[4] = molecular target: T1, Aurora kinase A (Homo sapiens) (UniProt O14965); experiment: (§1) Aurora-A(h) Eurofins kinase panel; details: Compound concentration 1.0 uM
T1 sequence (whole entry): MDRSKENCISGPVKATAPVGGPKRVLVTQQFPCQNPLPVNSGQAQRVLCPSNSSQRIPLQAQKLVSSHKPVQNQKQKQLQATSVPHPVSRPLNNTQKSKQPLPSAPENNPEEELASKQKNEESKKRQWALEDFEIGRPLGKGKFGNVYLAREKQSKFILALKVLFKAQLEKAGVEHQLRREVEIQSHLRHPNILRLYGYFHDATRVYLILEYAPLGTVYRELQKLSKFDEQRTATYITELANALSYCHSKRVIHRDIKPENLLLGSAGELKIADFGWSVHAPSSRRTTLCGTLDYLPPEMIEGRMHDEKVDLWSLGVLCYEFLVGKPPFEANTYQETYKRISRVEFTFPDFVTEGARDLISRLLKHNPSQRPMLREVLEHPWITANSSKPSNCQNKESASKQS

[5] = molecular target: Aurora kinase A (Homo sapiens, UniProt O14965); experiment: as §1
[6] = molecular target: Serine/threonine-protein kinase PLK1 (Homo sapiens) (UniProt P53350); experiment: Plk1(h) Eurofins kinase panel; details: Compound concentration 1.0 uM
Serine/threonine-protein kinase PLK1 (Homo sapiens), sequence (P53350 whole entry): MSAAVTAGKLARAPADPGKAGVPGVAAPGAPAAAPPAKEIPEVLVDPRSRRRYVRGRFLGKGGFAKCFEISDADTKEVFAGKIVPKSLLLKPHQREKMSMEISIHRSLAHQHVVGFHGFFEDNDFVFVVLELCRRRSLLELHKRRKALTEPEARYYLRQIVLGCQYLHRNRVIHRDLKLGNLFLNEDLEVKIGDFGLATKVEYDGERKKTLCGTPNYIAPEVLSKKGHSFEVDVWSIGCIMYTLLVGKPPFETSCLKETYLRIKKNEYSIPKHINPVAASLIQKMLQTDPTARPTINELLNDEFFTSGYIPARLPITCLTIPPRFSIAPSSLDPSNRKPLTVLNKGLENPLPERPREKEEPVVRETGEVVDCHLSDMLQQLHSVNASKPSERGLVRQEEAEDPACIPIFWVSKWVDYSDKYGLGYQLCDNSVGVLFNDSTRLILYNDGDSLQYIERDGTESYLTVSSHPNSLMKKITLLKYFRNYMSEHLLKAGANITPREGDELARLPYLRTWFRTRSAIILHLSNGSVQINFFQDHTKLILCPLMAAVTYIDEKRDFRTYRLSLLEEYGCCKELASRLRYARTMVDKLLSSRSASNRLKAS

[7] = molecular target: Dual specificity protein kinase CLK2 (Homo sapiens) (UniProt P49760); experiment: CLK2(h) Eurofins kinase panel; details: Compound concentration 1.0 uM
Dual specificity protein kinase CLK2 (Homo sapiens), sequence (P49760 whole entry, looked up): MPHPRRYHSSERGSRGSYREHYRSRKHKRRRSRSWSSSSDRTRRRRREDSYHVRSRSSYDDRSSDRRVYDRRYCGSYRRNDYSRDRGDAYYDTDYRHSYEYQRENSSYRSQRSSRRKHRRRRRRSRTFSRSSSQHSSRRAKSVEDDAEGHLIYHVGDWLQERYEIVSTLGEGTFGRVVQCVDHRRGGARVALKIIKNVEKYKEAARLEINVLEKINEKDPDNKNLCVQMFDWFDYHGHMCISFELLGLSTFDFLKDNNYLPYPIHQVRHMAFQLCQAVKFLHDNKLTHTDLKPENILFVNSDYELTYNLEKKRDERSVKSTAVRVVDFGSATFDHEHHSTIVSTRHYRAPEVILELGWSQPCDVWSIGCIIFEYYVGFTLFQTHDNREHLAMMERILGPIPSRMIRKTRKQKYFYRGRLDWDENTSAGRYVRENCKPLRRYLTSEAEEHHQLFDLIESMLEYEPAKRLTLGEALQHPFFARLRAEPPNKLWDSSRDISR

[8] = tested on: DU-145; experiment: DU-145 cell line Proliferation assay; format: functional, Homo sapiens; details: time 6 day
[9] = tested on: BXPC-3; experiment: BxPC3 cell line Proliferation assay; format: functional, Homo sapiens; details: time 3 day
[10] = molecular target: T2, Ephrin type-B receptor 1 (Homo sapiens) (UniProt P54762); experiment: EphB1(h) Eurofins kinase panel; details: Compound concentration 1.0 uM
T2 sequence (whole entry): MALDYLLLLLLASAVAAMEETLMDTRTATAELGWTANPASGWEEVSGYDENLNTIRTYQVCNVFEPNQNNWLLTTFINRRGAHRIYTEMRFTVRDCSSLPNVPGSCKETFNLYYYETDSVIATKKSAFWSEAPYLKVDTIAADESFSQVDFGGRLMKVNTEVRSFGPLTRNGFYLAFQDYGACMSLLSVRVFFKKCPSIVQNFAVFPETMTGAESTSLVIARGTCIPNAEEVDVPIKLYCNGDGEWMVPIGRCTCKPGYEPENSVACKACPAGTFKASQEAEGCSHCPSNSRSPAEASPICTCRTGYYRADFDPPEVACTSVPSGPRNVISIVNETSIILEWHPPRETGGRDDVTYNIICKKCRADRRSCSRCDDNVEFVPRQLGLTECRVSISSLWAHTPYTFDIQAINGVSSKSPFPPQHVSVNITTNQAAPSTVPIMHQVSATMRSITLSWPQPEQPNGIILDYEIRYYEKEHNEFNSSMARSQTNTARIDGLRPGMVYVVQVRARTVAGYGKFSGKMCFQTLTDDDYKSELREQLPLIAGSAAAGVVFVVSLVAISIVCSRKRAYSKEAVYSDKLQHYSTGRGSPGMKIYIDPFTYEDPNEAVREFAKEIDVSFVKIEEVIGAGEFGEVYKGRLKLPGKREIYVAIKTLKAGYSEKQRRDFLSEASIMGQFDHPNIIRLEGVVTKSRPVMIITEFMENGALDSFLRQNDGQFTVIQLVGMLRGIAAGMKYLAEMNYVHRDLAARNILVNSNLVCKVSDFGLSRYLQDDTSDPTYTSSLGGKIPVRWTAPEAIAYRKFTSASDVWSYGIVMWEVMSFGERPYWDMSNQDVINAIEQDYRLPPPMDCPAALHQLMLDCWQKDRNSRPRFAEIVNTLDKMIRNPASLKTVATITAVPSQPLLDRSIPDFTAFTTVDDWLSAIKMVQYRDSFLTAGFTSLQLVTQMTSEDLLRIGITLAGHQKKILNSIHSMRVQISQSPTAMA

[11] = molecular target: T3, Serine/threonine-protein kinase TAO2 (Homo sapiens) (UniProt Q9UL54); experiment: TAO2(h) Eurofins kinase panel; details: Compound concentration 1.0 uM
T3 sequence (whole entry): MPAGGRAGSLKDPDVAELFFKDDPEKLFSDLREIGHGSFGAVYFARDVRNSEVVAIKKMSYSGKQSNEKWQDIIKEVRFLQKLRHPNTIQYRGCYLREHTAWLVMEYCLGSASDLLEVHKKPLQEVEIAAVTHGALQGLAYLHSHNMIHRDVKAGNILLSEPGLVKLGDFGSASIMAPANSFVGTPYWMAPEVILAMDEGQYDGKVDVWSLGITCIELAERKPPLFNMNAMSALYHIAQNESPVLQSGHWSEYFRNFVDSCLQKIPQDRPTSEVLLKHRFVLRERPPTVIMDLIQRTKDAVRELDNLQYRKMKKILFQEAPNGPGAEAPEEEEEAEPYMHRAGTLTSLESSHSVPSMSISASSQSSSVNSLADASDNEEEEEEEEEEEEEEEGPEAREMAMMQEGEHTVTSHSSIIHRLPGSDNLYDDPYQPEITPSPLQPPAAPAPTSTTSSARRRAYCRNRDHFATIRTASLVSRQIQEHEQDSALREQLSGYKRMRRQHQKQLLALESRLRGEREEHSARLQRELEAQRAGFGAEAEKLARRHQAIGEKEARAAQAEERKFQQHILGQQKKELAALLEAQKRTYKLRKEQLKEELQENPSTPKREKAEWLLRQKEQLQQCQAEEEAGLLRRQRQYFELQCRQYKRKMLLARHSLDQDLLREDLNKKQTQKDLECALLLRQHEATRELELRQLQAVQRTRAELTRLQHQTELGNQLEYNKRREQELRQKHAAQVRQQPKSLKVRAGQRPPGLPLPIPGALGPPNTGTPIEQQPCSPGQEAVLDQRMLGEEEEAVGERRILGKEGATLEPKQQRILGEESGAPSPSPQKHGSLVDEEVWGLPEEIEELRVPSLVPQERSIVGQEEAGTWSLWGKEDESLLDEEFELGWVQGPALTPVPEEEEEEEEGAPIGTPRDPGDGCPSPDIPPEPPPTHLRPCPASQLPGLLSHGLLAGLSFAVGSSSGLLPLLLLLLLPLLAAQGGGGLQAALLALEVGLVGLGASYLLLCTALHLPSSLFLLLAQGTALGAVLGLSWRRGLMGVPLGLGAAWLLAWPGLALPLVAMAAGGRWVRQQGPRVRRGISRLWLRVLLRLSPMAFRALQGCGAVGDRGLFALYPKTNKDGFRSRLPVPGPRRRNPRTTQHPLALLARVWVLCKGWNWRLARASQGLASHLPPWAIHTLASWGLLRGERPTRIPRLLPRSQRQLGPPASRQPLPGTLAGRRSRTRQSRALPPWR

Tyrosine-protein kinase CSK (Homo sapiens), sequence (P41240 2-450 limits assumed): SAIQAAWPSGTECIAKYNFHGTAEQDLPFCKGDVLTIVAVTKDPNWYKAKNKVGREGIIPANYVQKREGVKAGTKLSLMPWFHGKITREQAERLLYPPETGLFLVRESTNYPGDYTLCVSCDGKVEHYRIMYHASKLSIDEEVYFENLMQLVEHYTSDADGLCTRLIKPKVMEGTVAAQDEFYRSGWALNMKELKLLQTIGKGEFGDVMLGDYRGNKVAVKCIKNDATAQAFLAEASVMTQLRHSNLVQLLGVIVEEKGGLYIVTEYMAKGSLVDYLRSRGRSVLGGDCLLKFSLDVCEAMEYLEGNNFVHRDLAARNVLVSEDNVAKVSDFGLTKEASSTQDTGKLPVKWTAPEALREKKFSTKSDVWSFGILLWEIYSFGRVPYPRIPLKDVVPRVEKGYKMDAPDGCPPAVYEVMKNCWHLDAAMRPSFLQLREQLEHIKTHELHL
Serine/threonine-protein kinase Nek6 (Homo sapiens), sequence (Q9HC98 whole entry): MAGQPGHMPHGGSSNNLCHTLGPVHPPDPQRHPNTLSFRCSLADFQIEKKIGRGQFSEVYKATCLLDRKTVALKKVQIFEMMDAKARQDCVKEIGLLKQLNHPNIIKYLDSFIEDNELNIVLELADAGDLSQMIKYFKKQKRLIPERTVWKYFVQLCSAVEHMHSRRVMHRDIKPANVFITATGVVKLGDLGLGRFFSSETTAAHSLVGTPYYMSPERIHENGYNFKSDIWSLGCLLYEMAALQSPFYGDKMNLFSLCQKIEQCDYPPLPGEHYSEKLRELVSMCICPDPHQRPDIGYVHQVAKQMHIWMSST

SMILES: CCc1ccccc1C(=O)Nc1n[nH]c2c(C)c(F)c(C3C(C#N)=C(C)N(C)C(C)=C3C#N)cc12 [BAY-3827]
- % residual kinase activity [1]: 90%
- % residual kinase activity [2]: 94%
- Cell Proliferation IC50 [3]: >33 µM
- % residual kinase activity [4]: 34%
- IC50 [5]: 480 nM
- % residual kinase activity [6]: 102%
- % residual kinase activity [7]: 93%
- Cell Proliferation IC50 [8]: >10 µM
- Cell Proliferation IC50 [9]: 11.4 µM
- % residual kinase activity [10]: 96%
- % residual kinase activity [11]: 104%
